# Test results as given in PubChem BioAssay (NCI).
#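 Dose response: 5 concentrations. Exposure: 48 h. Format: 96-well plates. Endpoint: linear interpolation; highest concentration if not reached. GI50 marks 50% less growth. TGI: total growth inhibition.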
# Tests used:
# Assay in all cases: NCI-60 cell line screen, 48 h
# 786-0 renal = test system: 786-0 renal
# A498 renal = test system: A498 renal
# A549 NSCLC = test system: A549 NSCLC
# ACHN renal = test system: ACHN renal
# BT-549 breast = test system: BT-549 breast
# CAKI-1 renal = test system: CAKI-1 renal
# CCRF-CEM leukemia = test system: CCRF-CEM leukemia
# COLO 205 colon = test system: COLO 205 colon
# DU-145 prostate = test system: DU-145 prostate
# EKVX NSCLC = test system: EKVX NSCLC
# HCC-2998 colon = test system: HCC-2998 colon
# HCT-116 colon = test system: HCT-116 colon
# HCT-15 colon = test system: HCT-15 colon
# HL-60(TB) leukemia = test system: HL-60(TB) leukemia
# HOP-62 NSCLC = test system: HOP-62 NSCLC
# HOP-92 NSCLC = test system: HOP-92 NSCLC
# HS 578T breast = test system: HS 578T breast
# HT29 colon = test system: HT29 colon
# IGROV1 ovarian = test system: IGROV1 ovarian
# K-562 leukemia = test system: K-562 leukemia
# KM12 colon = test system: KM12 colon
# LOX IMVI melanoma = test system: LOX IMVI melanoma
# M14 melanoma = test system: M14 melanoma
# MALME-3M melanoma = test system: MALME-3M melanoma
# MCF7 breast = test system: MCF7 breast
# MDA-MB-231 breast = test system: MDA-MB-231 breast
# MDA-MB-435 = test system: MDA-MB-435
# MOLT-4 leukemia = test system: MOLT-4 leukemia
# NCI-H226 lung = test system: NCI-H226 lung
# NCI-H23 lung = test system: NCI-H23 lung
# NCI-H460 lung = test system: NCI-H460 lung
# NCI-H522 lung = test system: NCI-H522 lung
# NCI/ADR-RES ovarian = test system: NCI/ADR-RES ovarian
# OVCAR-3 ovarian = test system: OVCAR-3 ovarian
# OVCAR-4 ovarian = test system: OVCAR-4 ovarian
# OVCAR-5 ovarian = test system: OVCAR-5 ovarian
# OVCAR-8 ovarian = test system: OVCAR-8 ovarian
# PC-3 prostate = test system: PC-3 prostate
# RPMI-8226 leukemia = test system: RPMI-8226 leukemia
# RXF 393 renal = test system: RXF 393 renal
# SF-268 CNS = test system: SF-268 CNS
# SF-295 CNS = test system: SF-295 CNS
# SF-539 CNS = test system: SF-539 CNS
# SK-MEL-2 melanoma = test system: SK-MEL-2 melanoma
# SK-MEL-28 melanoma = test system: SK-MEL-28 melanoma
# SK-MEL-5 melanoma = test system: SK-MEL-5 melanoma
# SK-OV-3 ovarian = test system: SK-OV-3 ovarian
# SN12C renal = test system: SN12C renal
# SNB-19 CNS = test system: SNB-19 CNS
# SNB-75 CNS = test system: SNB-75 CNS
# SR leukemia = test system: SR leukemia
# SW-620 colon = test system: SW-620 colon
# T-47D breast = test system: T-47D breast
# TK-10 renal = test system: TK-10 renal
# U251 CNS = test system: U251 CNS
# UACC-257 melanoma = test system: UACC-257 melanoma
# UACC-62 melanoma = test system: UACC-62 melanoma
# UO-31 renal = test system: UO-31 renal
compound,measurement,setting,value
O=C(NC1CCC(Br)CC1)C1CCCC(S(=O)(=O)NC2CCCCC2)C1 (stereo unspecified),GI50,786-0 renal,19.3 µM
same,TGI,786-0 renal,55 µM
same,GI50,A498 renal,3.7 µM
same,TGI,A498 renal,21.7 µM
same,GI50,A549 NSCLC,9.81 µM
same,TGI,A549 NSCLC,44.8 µM
same,GI50,ACHN renal,9.9 µM
same,TGI,ACHN renal,39.4 µM
same,GI50,BT-549 breast,8.34 µM
same,TGI,BT-549 breast,35.4 µM
same,GI50,CAKI-1 renal,10.2 µM
same,TGI,CAKI-1 renal,42.5 µM
same,GI50,CCRF-CEM leukemia,0.233 µM
same,TGI,CCRF-CEM leukemia,26.3 µM
same,GI50,COLO 205 colon,14 µM
same,TGI,COLO 205 colon,51.5 µM
same,GI50,DU-145 prostate,16.1 µM
same,TGI,DU-145 prostate,47.7 µM
same,GI50,EKVX NSCLC,7.81 µM
same,TGI,EKVX NSCLC,32.9 µM
same,GI50,HCC-2998 colon,13 µM
same,TGI,HCC-2998 colon,47.3 µM
same,GI50,HCT-116 colon,9.15 µM
same,TGI,HCT-116 colon,38 µM
same,GI50,HCT-15 colon,11.5 µM
same,TGI,HCT-15 colon,46.9 µM
same,GI50,HL-60(TB) leukemia,8.6 µM
same,TGI,HL-60(TB) leukemia,82.2 µM
same,GI50,HOP-62 NSCLC,24 µM
same,TGI,HOP-62 NSCLC,59.8 µM
same,GI50,HOP-92 NSCLC,4.7 µM
same,TGI,HOP-92 NSCLC,23 µM
same,GI50,HS 578T breast,16.8 µM
same,TGI,HS 578T breast,87.2 µM
same,GI50,HT29 colon,17.7 µM
same,TGI,HT29 colon,55 µM
same,GI50,IGROV1 ovarian,9.78 µM
same,TGI,IGROV1 ovarian,46 µM
same,GI50,K-562 leukemia,7.52 µM
same,TGI,K-562 leukemia,250 µM
same,GI50,KM12 colon,13.3 µM
same,TGI,KM12 colon,47.8 µM
same,GI50,LOX IMVI melanoma,10.7 µM
same,TGI,LOX IMVI melanoma,40.4 µM
same,GI50,M14 melanoma,9.42 µM
same,TGI,M14 melanoma,39.6 µM
same,GI50,MALME-3M melanoma,6.47 µM
same,TGI,MALME-3M melanoma,39.3 µM
same,GI50,MCF7 breast,9.31 µM
same,TGI,MCF7 breast,63.8 µM
same,GI50,MDA-MB-231 breast,13.5 µM
same,TGI,MDA-MB-231 breast,55.8 µM
same,GI50,MDA-MB-435,10.6 µM
same,TGI,MDA-MB-435,42.3 µM
same,GI50,MOLT-4 leukemia,8.91 µM
same,TGI,MOLT-4 leukemia,79.3 µM
same,GI50,NCI-H226 lung,12 µM
same,TGI,NCI-H226 lung,109 µM
same,GI50,NCI-H23 lung,7.88 µM
same,TGI,NCI-H23 lung,35.3 µM
same,GI50,NCI-H460 lung,11.4 µM
same,TGI,NCI-H460 lung,48 µM
same,GI50,NCI-H522 lung,8 µM
same,TGI,NCI-H522 lung,38.1 µM
same,GI50,NCI/ADR-RES ovarian,8.36 µM
same,TGI,NCI/ADR-RES ovarian,37.7 µM
same,GI50,OVCAR-3 ovarian,9.83 µM
same,TGI,OVCAR-3 ovarian,40 µM
same,GI50,OVCAR-4 ovarian,8.19 µM
same,TGI,OVCAR-4 ovarian,44.1 µM
same,GI50,OVCAR-5 ovarian,14.2 µM
same,TGI,OVCAR-5 ovarian,48.8 µM
same,GI50,OVCAR-8 ovarian,12.8 µM
same,TGI,OVCAR-8 ovarian,59 µM
same,GI50,PC-3 prostate,8.47 µM
same,TGI,PC-3 prostate,37.1 µM
same,GI50,RPMI-8226 leukemia,9.79 µM
same,TGI,RPMI-8226 leukemia,58 µM
same,GI50,RXF 393 renal,11.8 µM
same,TGI,RXF 393 renal,48.1 µM
same,GI50,SF-268 CNS,12.6 µM
same,TGI,SF-268 CNS,56 µM
same,GI50,SF-295 CNS,8.04 µM
same,TGI,SF-295 CNS,28.4 µM
same,GI50,SF-539 CNS,13.5 µM
same,TGI,SF-539 CNS,46.3 µM
same,GI50,SK-MEL-2 melanoma,11.5 µM
same,TGI,SK-MEL-2 melanoma,46.4 µM
same,GI50,SK-MEL-28 melanoma,9.22 µM
same,TGI,SK-MEL-28 melanoma,36.8 µM
same,GI50,SK-MEL-5 melanoma,4.96 µM
same,TGI,SK-MEL-5 melanoma,11.6 µM
same,GI50,SK-OV-3 ovarian,14.1 µM
same,TGI,SK-OV-3 ovarian,47.3 µM
same,GI50,SN12C renal,9.29 µM
same,TGI,SN12C renal,39.8 µM
same,GI50,SNB-19 CNS,11.1 µM
same,TGI,SNB-19 CNS,42.7 µM
same,GI50,SNB-75 CNS,17 µM
same,TGI,SNB-75 CNS,69.5 µM
same,GI50,SR leukemia,18.8 µM
same,TGI,SR leukemia,129 µM
same,GI50,SW-620 colon,13.9 µM
same,TGI,SW-620 colon,53.7 µM
same,GI50,T-47D breast,6.05 µM
same,TGI,T-47D breast,37 µM
same,GI50,TK-10 renal,15 µM
same,TGI,TK-10 renal,49.9 µM
same,GI50,U251 CNS,10.9 µM
same,TGI,U251 CNS,43 µM
same,GI50,UACC-257 melanoma,9.32 µM
same,TGI,UACC-257 melanoma,38.4 µM
same,GI50,UACC-62 melanoma,7.38 µM
same,TGI,UACC-62 melanoma,35.3 µM
same,GI50,UO-31 renal,6.26 µM
same,TGI,UO-31 renal,33.1 µM
